For series [1], the system named is IL-6. Put plainly: IL-6 ELISA in HIVIL (iKCs co-cultured with iHeps, LPS, 48 hr). Conditions: for IL-6 response: result in words; for IC50: Homo sapiens, LPS, 48 hr. In kind it is cell-based, human. The text has this:
Human iPSC cell line iPS (IMR90)-4 was purchased from WiCell Research Institute (Madison, WI), and maintained with a feeder-free method according to the instruction from […] Technologies (Vancouver, BC, Canada). The protocol of differentiation towards iKCs and iHeps as described previously with slight modification ([Tasnim et al., 2019]; [Cai et al., 2012]), respectively. […] More details are provided in Supplementary Methods. After differentiation, iKCs was harvested using 0.05 % trypsin-EDTA (Gibco, Waltham, Massachusetts, USA), while iHeps were dissociated with TrypLE^TM (Gibco). iHep suspension was further filtered through a 40 µm cell strainer to remove extracellular matrix clumps. Cell suspension was centrifuged at 1000 rpm for 5 min. For co-culture set up, tissue culture plates were coated with Rat tail collagen I (Gibco) diluted 100-fold in 0.02 N acetic acid, and incubated at 37 °C for 1 h and washed 3 times with PBS. According to the protocol optimized by [Tasnim et al. (2019)], iKCs was firstly seeded at a density of 14,000 per well on 96-well plate with Advanced DMEM (plus supplements) containing 5 % FBS. On the following day, iHeps were added at a density of 35,000 per well in Williams’ Medium E (plus supplements) (iHep: iKCs ratio = 2.5: 1). This reflects the physiological ratio of these cells in vivo under inflammatory conditions ([Tasnim et al., 2021]). Fresh media containing drugs was applied to co-cultures the next day. 50,000 cells were seeded to establish iHeps monoculture. THP-1 cells were kindly obtained from Dr. Eliza Fong and cultured as described by [Zeng et al. (2015)]. Details provided in Supplementary Methods.
(§1) Stock solutions of drugs were prepared in dimethyl sulfoxide (DMSO) and dissolved in medium prior to use. […] For these two drugs, the highest DMSO concentration was 1 %. Supernatant was collected at 48 hr for measurement of cytokines, and remaining cells were subjected to viability assay prior to lysis for RNA extraction.
Enzyme-linked immunosorbent assay (ELISA) for measurement of cytokines: Interleukin-6 (IL-6), interleukin-10 (IL-10) and tumor necrosis factor alpha (TNFα) levels in the media were measured using the corresponding human-based ELISA kits (Abcam, Cambridge, United Kingdom) according to manufacturer’s instructions. The cytokine production from dosed cells was normalized with the viability value from the same well. The normalized cytokine level upon drug treatments was further presented as percentage of DMSO+LPS. […] This normalization approach has been used in previous studies (Rose et al. 2016).
(In general: In an ELISA, binding on a coated surface is turned into a signal by an enzyme label.)

The subject of series [2] is HIVIL (iKCs co-cultured with iHeps). Put plainly: AlamarBlue cell viability in HIVIL. The settings on record: for IC50: Homo sapiens. The method, then: as §1
Background: Resazurin is reduced to fluorescent resorufin, in cell work by metabolically active cells.

In series [3] the test system is IL-6. As to the kind of experiment: IL-6 ELISA in iPSC(F4)-derived HIVIL. Conditions: result in words. In kind it is cell-based, human. The method, then:
(§2) Enzyme-linked immunosorbent assay (ELISA) for measurement of cytokines: Interleukin-6 (IL-6), interleukin-10 (IL-10) and tumor necrosis factor alpha (TNFα) levels in the media were measured using the corresponding human-based ELISA kits (Abcam, Cambridge, United Kingdom) according to manufacturer’s instructions. The cytokine production from dosed cells was normalized with the viability value from the same well. The normalized cytokine level upon drug treatments was further presented as percentage of DMSO+LPS. Normalization to viability per well ensures that any changes in cytokines are not due to changes in cell numbers upon drug treatment and normalization to DMSO+LPS allows better comparison between different batches of experiments. This normalization approach has been used in previous studies (Rose et al. 2016).

Series [4] has as its system IL-6. As to the kind of experiment: IL-6 production of iKC mono-culture. In kind it is cell-based, human. The settings on record: result in words. The method, then:
as §2

Series [5] relates to IL-10. The arrangement: method as in Bekker et al. 2016. The settings on record: ref Bekker et al. 2016; cited from earlier work.
Another series deals with cytokines. More on the design: method as in ref Ganey et al. 2004; Honarmand et al. 2012; Manna and Aggarwal 1999; Yao et al. 2004. The settings on record: ref Ganey et al. 2004; Honarmand et al. 2012; Manna and Aggarwal 1999; Yao et al. 2004; cited from earlier work.
Series [6] deals with IL-6. Conditions: other in vitro models deploying 1-10 μg/mL of LPS; ref Jiang et al. 2019; Li et al. 2020; cited from earlier work.
The conditions of series [7]: FDA-labeling information; ref Chen et al. 2016; cited from earlier work.
The test system of series [8] is IL-10. As to the kind of experiment: IL-10 ELISA in HIVIL (iKCs co-cultured with iHeps, LPS, 48 hr). Conditions: result in words. In kind it is cell-based, human. The source says: Human iPSC cell line iPS (IMR90)-4 was purchased from WiCell Research Institute (Madison, WI), and maintained with a feeder-free method according to the instruction from […] Technologies (Vancouver, BC, Canada). The protocol of differentiation towards iKCs and iHeps as described previously with slight modification ([Tasnim et al., 2019]; [Cai et al., 2012]), respectively. […] More details are provided in Supplementary Methods. After differentiation, iKCs was harvested using 0.05 % trypsin-EDTA (Gibco, Waltham, Massachusetts, USA), while iHeps were dissociated with TrypLE^TM (Gibco). iHep suspension was further filtered through a 40 µm cell strainer to remove extracellular matrix clumps. Cell suspension was centrifuged at 1000 rpm for 5 min. For co-culture set up, tissue culture plates were coated with Rat tail collagen I (Gibco) diluted 100-fold in 0.02 N acetic acid, and incubated at 37 °C for 1 h and washed 3 times with PBS. […]
Enzyme-linked immunosorbent assay (ELISA) for measurement of cytokines: Interleukin-6 (IL-6), interleukin-10 (IL-10) and tumor necrosis factor alpha (TNFα) levels in the media were measured using the corresponding human-based ELISA kits (Abcam, Cambridge, United Kingdom) according to manufacturer’s instructions. […]

The test system of series [9] is IL-6. Put plainly: IL-6 response in HIVIL using THP-1 macrophages co-cultured with iHeps. It counts as cell-based, human. Conditions: HIVIL with THP-1 instead of iKCs, result in words.
From the text: Human iPSC cell line iPS (IMR90)-4 was purchased from WiCell Research Institute (Madison, WI), and maintained with a feeder-free method according to the instruction from […] Technologies (Vancouver, BC, Canada). The protocol of differentiation towards iKCs and iHeps as described previously with slight modification ([Tasnim et al., 2019]; [Cai et al., 2012]), respectively. The re-optimized protocol to generate iKCs is discussed in Results section. More details are provided in Supplementary Methods. After differentiation, iKCs was harvested using 0.05 % trypsin-EDTA (Gibco, Waltham, Massachusetts, USA), while iHeps were dissociated with TrypLE^TM (Gibco). iHep suspension was further filtered through a 40 µm cell strainer to remove extracellular matrix clumps. Cell suspension was centrifuged at 1000 rpm for 5 min. For co-culture set up, tissue culture plates were coated with Rat tail collagen I (Gibco) diluted 100-fold in 0.02 N acetic acid, and incubated at 37 °C for 1 h and washed 3 times with PBS. According to the protocol optimized by [Tasnim et al. (2019)], iKCs was firstly seeded at a density of 14,000 per well on 96-well plate with Advanced DMEM (plus supplements) containing 5 % FBS. On the following day, iHeps were added at a density of 35,000 per well in Williams’ Medium E (plus supplements) (iHep: iKCs ratio = 2.5: 1). This reflects the physiological ratio of these cells in vivo under inflammatory conditions ([Tasnim et al., 2021]). Fresh media containing drugs was applied to co-cultures the next day. 50,000 cells were seeded to establish iHeps monoculture. THP-1 cells were kindly obtained from Dr. Eliza Fong and cultured as described by [Zeng et al. (2015)]. Details provided in Supplementary Methods.
THP-1 maintenance and differentiation: THP-1 monocytic lineage was maintained in RPMI 1640 with 10% FBS. For differentiation to macrophages, suspension cells were collected and subjected to 2-day phorbol 12-myristate 13-acetate (PMA) treatment (50 ng/ml), followed by a 1-day PMA-free medium resting. THP-1 macrophages were trypsinzed and used for co-culture as described in Material and methods.
as §2

For series [10] the following is noted: Cammett et al. 2009, Mendes et al. 2014, cited from earlier work.
Series [11] relates to IL-6. More on the design: method as in Steuerwald et al. 2013; Mahdy et al. 2002; Kang et al. 2001. The settings on record: ref Steuerwald et al. 2013; Mahdy et al. 2002; Kang et al. 2001; cited from earlier work.
Series [12] deals with IL-10. More on the design: method as in Mahdy et al. 2002. Conditions: ref Mahdy et al. 2002; cited from earlier work.
The subject of a further series is PHH-PHKC co-culture. The arrangement: method as in Messner et al., 2013; Sarkar et al., 2017. Conditions: ref Messner et al., 2013; Sarkar et al., 2017; cited from earlier work.
The test system of a further series is PHH. More on the design: method as in Mennecozzi et al., 2015. The settings on record: ref Mennecozzi et al., 2015; read-out: IC50 in PHH mono-cultures; cited from earlier work.
Another series has as its system iHeps mono-cultures. More on the design: method as in Kia et al., 2015. Conditions: ref Kia et al., 2015; cited from earlier work.
For series [13] the following is noted: binary classification by human hepatotoxicity; ref Thakkar et al. 2020; cited from earlier work.
Setting [14] is: 48 h, read-out: IC50: viability.

Read-outs that look alike come from different tables or passages of the source.

The IC50 is the concentration needed to halve the response being measured. As to `CC(=O)Nc1ccc(O)cc1` [APAP, acetaminophen], the “reduction of IL-6 in HIVIL” value in the series on IL-6 [1] (2 mM) is roughly 50%. In addition, in the series with IL-6 [1] (HIVIL), the “group by drug-dependent IL-6 production” value is “dose-dependent inhibition”, the “reduction of IL-6” value came out at 50%, the IL-6 response entry is “decreased” and it took 5.36 mM to reach half-maximal inhibition (IC50). The 50% inhibitory concentration (IC50) in [2] (setting [14]) turned out to be 10200 µM. For the same molecule, the “viability profiles among iHeps, iKCs and HIVIL” value in [2] (comparison of mono-cultures and co-culture) is on record as “similar”. Besides, the IL-6 production result in the series on IL-6 [3] is “Dose-dependent decrease”. Further, the “IL-6 / cytokine production in iKC mono-culture” value with IL-6 [4] is reported as “remained unchanged”. The “Reported in-vivo (murine) responses: IL-10” value in the series on IL-10 [5] is “IL-10↓”. Further, in the series with cytokines, the “Reported in-vivo (murine) responses: cytokines” value is on record as “IL-6/IL-10 are protective factors”. In addition, the IL-6 change result in the series on IL-6 [6] is “increased”. Besides, the DILIrank result in series [7] is recorded as “most”.

As a reminder, the Cmax is the highest concentration seen after dosing. With `O=C(O)Cc1ccccc1Nc1c(Cl)cccc1Cl` [DIC, diclofenac], in the series on IL-6 [1] (HIVIL), the IL-6 response entry is listed as “dose-dependent decrease”. The 50% inhibitory concentration (IC50) in the series on IL-6 [1] (HIVIL) was 0.112 mM; in series [2] (setting [14]) it was 385 µM; in series [2] (read-out: IC50 (drug toxicity) in HIVIL), 385 µM; in the series with PHH-PHKC co-culture, roughly 127 µM; with PHH, roughly 1 mM; with iHeps mono-cultures, roughly 1 mM. Further, the IL-10 response entry in the series with IL-10 [8] is on record as “decrease”. Further, in the series with IL-6 [9], the “drug-specific IL-6 response with THP-1 macrophages” value was “did not detect”. The IL-6 production result in the series with IL-6 [3] is “Dose-dependent decrease”. Also, the peak concentration (Cmax) in series [10] (ref in each cell: Ademisoye et al. 2018, Xu et al. 2008, Agabeyoglu and Incecayir 2009, Rojanasthien et al. 2007, Reunanen et al. 1992, Li et al. 2002, Hong-mei et al. 2013, Bareggi et al. 1987, Jiang et al. 2008) was 8 µM; in series [10] (ref in each cell: Xu et al. 2008), 8 µM. The “Reported human responses: IL-6” value in the series with IL-6 [11] is listed as “IL-6↓”. For the same molecule, in the series on IL-10 [12], the “Reported human responses: IL-10” value is given as “IL-10↑”. In addition, the DILIrank entry in series [7] is given as “most”. For the same molecule, the DILIst in [13] is 1.
